This is an account of results in US20230075856A1, “CYCLIC SULFAMIDE COMPOUNDS FOR TREATMENT OF HBV” (Assembly Biosciences, Inc., priority 2018, published 2023).

In one assay the test system is HBV viral load production from HepAD38 cells. Description: Viral production from HepAD38 cells: viral load in supernatant by qPCR of the HBV core sequence. In kind it is cell-based. Conditions: 5 days incubation, qPCR of supernatant HBV DNA vs DMSO control, read-out: viral load lowering EC50 (Activity). In a few lines:
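HepAD38 cells seeded at 50,000/well in tetracycline-free medium with 2% FBS, treated with compounds (final top concentration 10 μM) for 5 days at 37 °C. Supernatant HBV DNA quantified by TaqMan qPCR of core sequence against HBV DNA standards, relative to DMSO controls; EC50 by four-parameter logistic fit.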
Turning to `CN1C(C(=O)Nc2ccc(F)c(Cl)c2)CC(C(=O)NCc2cnc(-c3ccc(C#N)cc3F)s2)NS1(=O)=O` (single isomer, unassigned) [Compound 920-ISOMER-B, N3-(3-chloro-4-fluoro-phenyl)-N5-[[2-(4-cyano-2-fluoro-phenyl)thiazol-5-yl]methyl]-2-methyl-1,1-dioxo-1,2,6-thiadiazinane-3,5-dicarboxamide], the 50% effective concentration (EC50) (as a rule, the concentration giving half of the maximal effect) was under 50 nM.

Regarding `Cc1cn(-c2ccccc2)nc1CNC(=O)C1CC(C(=O)Nc2ccc(F)c(C#N)c2)N(C)S(=O)(=O)N1` (single isomer, unassigned) [1134-ISOMER-B, N3-(3-cyano-4-fluoro-phenyl)-2-methyl-N5-[(4-methyl-1-phenyl-pyrazol-3-yl)methyl]-1,1-dioxo-1,2,6-thiadiazinane-3,5-dicarboxamide], the EC50 was under 50 nM.

`Cc1c(CNC(=O)C2CC(C(=O)Nc3ccc(F)c(Cl)c3)N(C)S(=O)(=O)N2)cnn1C` (single isomer, unassigned) [Compound 740-ISOMER-B, N3-(3-chloro-4-fluoro-phenyl)-N5-[(1,5-dimethylpyrazol-4-yl)methyl]-2-methyl-1,1-dioxo-1,2,6-thiadiazinane-3,5-dicarboxamide]: the EC50 lay in the range of 100 to 10000 nM.

Take `Cc1csc(CNC(=O)C2CC(C(=O)Nc3ccc(F)c(Cl)c3)N(C)S(=O)(=O)N2)n1` (single isomer, unassigned) [Compound 686-ISOMER-B, N3-(3-chloro-4-fluoro-phenyl)-2-methyl-N5-[(4-methylthiazol-2-yl)methyl]-1,1-dioxo-1,2,6-thiadiazinane-3,5-dicarboxamide]: the EC50 was under 50 nM.

Consider `CN1C(C(=O)Nc2ccc(F)c(Cl)c2)CC(C(=O)NCc2nc3ccccc3s2)NS1(=O)=O` (single isomer, unassigned) [Compound 689-ISOMER-B, N5-(1,3-benzothiazol-2-ylmethyl)-N3-(3-chloro-4-fluoro-phenyl)-2-methyl-1,1-dioxo-1,2,6-thiadiazinane-3,5-dicarboxamide], for which the concentration for a half-maximal effect (EC50) is under 50 nM.

In the case of `CN1C(C(=O)Nc2ccc(F)c(Cl)c2)CC(C(=O)NC(c2ccccc2)c2ccccc2)NS1(=O)=O` (single isomer, unassigned) [1014-ISOMER-B, N5-benzhydryl-N3-(3-Chloro-4-fluoro-phenyl)-2-methyl-1,1-dioxo-1,2,6-thiadiazinane-3,5-dicarboxamide], the EC50 lay within 100 to 10000 nM.

As for `CN1C(C(=O)Nc2ccc(F)c(Cl)c2)CC(C(=O)NC2CCN(C(=O)C3CC3)CC2)NS1(=O)=O` (single isomer, unassigned) [Compound 854-ISOMER-B, N3-(3-chloro-4-fluoro-phenyl)-N5-[1-(cyclopropanecarbonyl)-4-piperidyl]-2-methyl-1,1-dioxo-1,2,6-thiadiazinane-3,5-dicarboxamide], the EC50 was in the range of 100 to 10000 nM.

Still in this assay, the particulars now being: Hepatitis B virus, HePAD38, 120 h, 5 days incubation, qPCR of supernatant HBV DNA vs DMSO control, read-out: viral load lowering EC50 (Activity).
`CN1C(C(=O)Nc2ccc(F)c(Cl)c2)CC(C(=O)NCc2ncc(-c3ccc(F)cc3)s2)NS1(=O)=O` (single isomer, unassigned) [1153-ISOMER-A, N3-(3-chloro-4-fluoro-phenyl)-N5-[[5-(4-fluorophenyl)thiazol-2-yl]methyl]-2-methyl-1,1-dioxo-1,2,6-thiadiazinane-3,5-dicarboxamide]: the EC50 is under 50 nM.

As for `Cc1cnc(CNC(=O)C2CC(C(=O)Nc3ccc(F)c(C#N)c3)N(C)S(=O)(=O)N2)s1` (stereo not drawn) [Compound 829], the EC50 was in the range of 100 to 10000 nM.

As for `CN1C(C(=O)Nc2ccc(F)c(Cl)c2)CC(C(=O)NCc2cnc(-c3ccc(OCCCN4CCCC4)cc3)s2)NS1(=O)=O` (stereo not drawn) [Compound 928], the EC50 lay within 50 to 100 nM.

As to `C[C@@H](NC(=O)C1CC(C(=O)Nc2ccc(F)c(C#N)c2)N(C)S(=O)(=O)N1)c1ccccc1` (stereo partly drawn) [Compound 834], the EC50 lay within 100 to 10000 nM.

Turning to `CCN1C(C(=O)Nc2ccc(F)c(Cl)c2)CC(C(=O)NC2CCN(C(=O)OC)CC2)NS1(=O)=O` (single isomer, unassigned) [Compound 890-ISOMER-A, methyl 4-[[5-[(3-chloro-4-fluoro-phenyl)carbamoyl]-6-ethyl-1,1-dioxo-1,2,6-thiadiazinane-3-carbonyl]amino]piperidine-1-carboxylate], the EC50 was under 50 nM.

On to `CN1C(C(=O)Nc2ccc(F)c(C#N)c2)CC(C(=O)NCc2cnc(-c3ccccc3)s2)NS1(=O)=O` (stereo not drawn) [Compound 830], for which the EC50 lay in the range of 50 to 100 nM.

For the compound `Cc1nc(-c2ccccc2F)sc1[C@H](NC(=O)C1CC(C(=O)Nc2ccc(F)c(Cl)c2)N(C)S(=O)(=O)N1)c1ccccc1` (single isomer, unassigned) [1101-ISOMER-A], the EC50 is under 50 nM.

As to `CN1C(C(=O)Nc2ccc(F)c(Cl)c2)CC(C(=O)NC2CCN(C(=O)OCCN3CCCCC3)CC2)NS1(=O)=O` (stereo not drawn) [Compound 963], the half-maximal effective concentration (EC50) lay within 100 to 10000 nM.

In the case of `Cc1nc(-c2ccccc2)sc1CNC(=O)C1CC(C(=O)Nc2ccc(F)c(Cl)c2)N(C)S(=O)(=O)N1` (stereo not drawn) [Compound 914], the concentration for a half-maximal effect (EC50) is under 50 nM.

In the case of `CN1C(C(=O)Nc2ccc(F)c(Cl)c2)CC(C(=O)NC2CCN(C(=O)OC(C)(C)C)CC2)NS1(=O)=O` (single isomer, unassigned) [Compound 767-ISOMER-A, tert-butyl 4-[[5-[(3-chloro-4-fluoro-phenyl)carbamoyl]-6-methyl-1,1-dioxo-1,2,6-thiadiazinane-3-carbonyl]amino]piperidine-1-carboxylate], the EC50 was under 50 nM.

On to `Cc1nc(-c2ccccc2)sc1CNC(=O)C1CC(C(=O)Nc2ccc(F)c(C#N)c2)N(C)S(=O)(=O)N1` (stereo not drawn) [Compound 1136], for which the EC50 is under 50 nM.

Consider `COc1ccc(CNC(=O)C2CC(C(=O)Nc3ccc(F)c(Cl)c3)N(C)S(=O)(=O)N2)cc1` (single isomer, unassigned) [Compound 717-ISOMER-A, N3-(3-chloro-4-fluoro-phenyl)-N5-[(4-methoxyphenyl)methyl]-2-methyl-1,1-dioxo-1,2,6-thiadiazinane-3,5-dicarboxamide], for which the EC50 is under 50 nM.

As to `COCCN1C(C(=O)Nc2ccc(F)c(Cl)c2)CC(C(=O)NC2CCN(C(=O)OC)CC2)NS1(=O)=O` (stereo not drawn) [Compound 896], the EC50 was in the range of 100 to 10000 nM.

In the case of `CN1C(C(=O)Nc2ccc(F)c(Cl)c2)CC(C(=O)NC2CCN(Cc3cccnc3Br)CC2)NS1(=O)=O` (stereo not drawn) [Compound 1033], the EC50 lay in the range of 100 to 10000 nM.

Take `CN(C)CCCCc1cnn(-c2ncc(CNC(=O)C3CC(C(=O)Nc4ccc(F)c(Cl)c4)N(C)S(=O)(=O)N3)s2)c1` (single isomer, unassigned) [1197-ISOMER-A, N3-(3-chloro-4-fluoro-phenyl)-N5-[[2-[4-[4-(dimethylamino)butyl]pyrazol-1-yl]thiazol-5-yl]methyl]-2-methyl-1,1-dioxo-1,2,6-thiadiazinane-3,5-dicarboxamide]: the EC50 is 100 to 10000 nM.

Turning to `CN1C(C(=O)Nc2ccc(F)c(Cl)c2)CC(C(=O)NCc2cnc(-c3cccc(Cl)c3)s2)NS1(=O)=O` (stereo not drawn) [Compound 913], the EC50 was 50 to 100 nM.

As for `CN1C(C(=O)Nc2ccc(F)c(Cl)c2)CC(C(=O)NC2CCN(c3cc(CN4CCCCC4)ccn3)CC2)NS1(=O)=O` (single isomer, unassigned) [Compound 975-ISOMER-A, N3-(3-chloro-4-fluoro-phenyl)-2-methyl-1,1-dioxo-N5-[1-[4-(1-piperidylmethyl)-2-pyridyl]-4-piperidyl]-1,2,6-thiadiazinane-3,5-dicarboxamide], the EC50 was under 50 nM.

In the case of `CN1C(C(=O)Nc2ccc(F)c(Cl)c2)CC(C(=O)NC2CCN(c3ncccn3)CC2)NS1(=O)=O` (single isomer, unassigned) [Compound 855-ISOMER-A, N3-(3-chloro-4-fluoro-phenyl)-2-methyl-1,1-dioxo-N5-(1-pyrimidin-2-yl-4-piperidyl)-1,2,6-thiadiazinane-3,5-dicarboxamide], the EC50 is under 50 nM.

On to `Cc1nc(CNC(=O)C2CC(C(=O)Nc3ccc(F)c(Cl)c3)N(C)S(=O)(=O)N2)sc1Br` (stereo not drawn) [Compound 1069], for which the EC50 is under 50 nM.

Turning to `Cc1c(CNC(=O)C2CC(C(=O)Nc3ccc(F)c(C#N)c3)N(C)S(=O)(=O)N2)cnn1C` (stereo not drawn) [Compound 838], the concentration giving a half-maximal response (EC50) was 100 to 10000 nM.

In the case of `Cc1cc(CNC(=O)C2CC(C(=O)Nc3ccc(F)c(Cl)c3)N(C)S(=O)(=O)N2)n(C)n1` (single isomer, unassigned) [Compound 482-ISOMER-A, N3-(3-chloro-4-fluoro-phenyl)-N5-[(2,5-dimethylpyrazol-3-yl)methyl]-2-methyl-1,1-dioxo-1,2,6-thiadiazinane-3,5-dicarboxamide], the EC50 was under 50 nM.

With `CN1C(C(=O)Nc2ccc(F)c(Cl)c2)CC(C(=O)Nc2cn(-c3ccccc3)cn2)NS1(=O)=O` (stereo not drawn) [Compound 1116], the EC50 was 50 to 100 nM.

In the case of `CCN1CCC(Oc2ccc(-c3ncc(CNC(=O)C4CC(C(=O)Nc5ccc(F)c(Cl)c5)N(C)S(=O)(=O)N4)s3)cc2)CC1` (single isomer, unassigned) [Compound 921-ISOMER-A, N3-(3-chloro-4-fluoro-phenyl)-N5-[[2-[4-[(1-ethyl-4-piperidyl)oxy]phenyl]thiazol-5-yl]methyl]-2-methyl-1,1-dioxo-1,2,6-thiadiazinane-3,5-dicarboxamide], the EC50 was under 50 nM.

As to `CN1C(C(=O)Nc2ccc(F)c(Cl)c2)CC(C(=O)NCc2cnc(-c3ccc(C#CCN4CCCCC4)cc3)s2)NS1(=O)=O` (single isomer, unassigned) [Compound 946-ISOMER-A, N3-(3-chloro-4-fluoro-phenyl)-2-methyl-1,1-dioxo-N5-[[2-[4-[3-(1-piperidyl)prop-1-ynyl]phenyl]thiazol-5-yl]methyl]-1,2,6-thiadiazinane-3,5-dicarboxamide], the EC50 is under 50 nM.

For `C[C@@H](NC(=O)C1CC(C(=O)Nc2ccc(F)c(C#N)c2)N(C)S(=O)(=O)N1)c1ccc(F)cc1` (stereo partly drawn) [Compound 776], the EC50 was in the range of 100 to 10000 nM.

Regarding `Cc1c(CNC(=O)C2CC(C(=O)Nc3ccc(F)c(Cl)c3)N(C)S(=O)(=O)N2)noc1-c1ccccc1` (stereo not drawn) [Compound 1150], the EC50 was under 50 nM.
